# Experimental data as given in US7022343B2, “Controlled release of anti-arrhythmic agents” (Genzyme Corporation, priority 2000, dated 2006).
# Structures can show the parent of a compound that is named as a salt.
# What was measured:
# [1] = FOCALSEAL-L; FIG. 2A / FIG. 2B
# [2] = Amiodarone concentration in dog right atrium under FOCALSEAL-S hydrogels (Example 9); assay type: in vivo; conditions: right atrial appendage, right ventricle, left atrial appendage, left atrial free wall, distal lung
# [3] = Tissue analysis of drug content under FOCALSEAL-S gels on porcine heart; assay type: in vivo; conditions: lung tissue adjacent to gel-treated sites; pig, seven days
smiles,measurement,setting,value
"CCCCc1oc2ccccc2c1C(=O)c1cc(I)c(OCCN(CC)CC)c(I)c1 [amiodarone, Amiodarone hydrochloride]",change in pH and modulus as concentration is increased,[1],decrease in pH and modulus
same,other tissue harvested showing a detectable level of amiodarone,[2],None
same,concentration at 7 days,[3],≤ 17000 ng/g
